Source: patent US5498755A, “Disubstituted aryl and heteroaryl imines having retinoid-like biological activity” (priority 1994, dated 1996)

System: ornithine decarboxylase (ODC)
Assay: ODC assay: inhibition of TPA induction of ornithine decarboxylase
Assay type: biochemical
Conditions: concentration of the test compound which causes 80% inhibition in the ODC assay; TPA-induced ODC
Description: The retinoic acid-like activity of these compounds is confirmed through the classic measure of retinoic acid activity involving the effects of retinoic acid on ornithine decarboxylase. The original work on the correlation between retinoic acid and decrease in cell proliferation was done by Verma & Boutwell, Cancer Research, 1977, 37, 2196-2201. That reference discloses that ornithine decarboxylase (ODC) activity increased precedent to polyamine biosynthesis. It has been established elsewhere that increases in polyamine synthesis can be correlated or associated with cellular proliferation. Thus, if ODC activity could be inhibited, cell hyperproliferation could be modulated. Although all cases for ODC activity increases are unknown, it is known that 12-O-tetradecanoylphorbol-13-acetate (TPA) induces ODC activity. […] Activity of exemplary compounds of the present invention in the above-described ODC assay is disclosed in Table 2 which provides the IC80 concentration for the respective exemplary compound. ("IC80 " is that concentration of the test compound which causes 80% inhibition in the ODC assay)

| Structure (SMILES) | IC80 conc [nmols] |
| --- | --- |
| COC(=O)c1ccc(C=Nc2ccc3c(c2)C(C)(C)CCC3(C)C)cc1 [Compound 1] | 14.5 |
| CCOC(=O)c1ccc(C=Nc2cc3c(cc2C)C(C)(C)CCC3(C)C)cc1 [Compound 6, N-(5,6,7,8-Tetrahydro-3,5,5,8,8-pentamethyl)-2-naphthalenyl 4-ethoxycarbonyl benzaldimine] | 293 |
| CCOC(=O)c1ccc(N=Cc2ccc3c(c2)C(C)(C)CCC3(C)C)cc1 [Compound 9, N-(4'-Ethoxycarbonyl)phenyl 5,6,7,8-tetrahydro-5,5,8,8-tetramethyl,naphthalene-2-carboxaldehyde imine] | 9.6 |
| CCOC(=O)c1ccc(N=Cc2cc3c(cc2C)C(C)(C)CCC3(C)C)cc1 [Compound 11, N-(4'-Ethoxycarbonyl) phenyl-2-(5,6,7,8-tetrahydro-3,5,5,8,8-pentamethyl) naphthalene-2-carboxaldehyde imine] | 3.5 |

Second part, the compound after the results:

| IC80 conc [nmols] | Structure (SMILES) |
| --- | --- |
| 2.5 | CCOC(=O)c1ccc(C=Nc2ccc3c(c2)C(C)(C)CCC3(C)C)cc1 [Compound 4, N-(5,6,7,8-Tetrahydro-5,5,8,8-tetramethyl)-2-naphthalenyl 4-ethoxycarbonyl benzaldimine] |
| 5.5 | CCOC(=O)c1ccc(C(C)=Nc2ccc3c(c2)C(C)(C)CCC3(C)C)cc1 [Compound 5, N-(5,6,7,8-Tetrahydro-5,5,8,8-tetramethyl)-2-naphthalenyl 4-ethoxycarbonyl acetophenone imine] |
| > 30 | CCOC(=O)c1ccc(C=Nc2ccc3c(c2)C(C)(C)CCC3(C)C)nc1 [Compound 7, Ethyl 6-(N-5,6,7,8-tetrahydro-5,5,8,8-tetramethyl-2-naphthalenyl) 3-ethoxycarbonyl-pyridine-6-carboxaldehyde imine] |
| 44.0 | CCOC(=O)c1ccc(N=Cc2ccc3c(c2)C(C)(C)CC(C)(C)O3)cc1 [Compound 10, N-(4'-Ethoxycarbonyl) phenyl 2,2,4,4-tetramethyl-chroman-6-carboxaldehyde imine] |

System: ornithine decarboxylase (ODC)
Assay: not given
Conditions: literature statement in words; 12-O-tetradecanoylphorbol-13-acetate (TPA) as inducer; cited from earlier work

| Structure (SMILES) | inhibition of TPA induction of ODC activity |
| --- | --- |
| CC1=C(/C=C/C(C)=C/C=C/C(C)=C/C(=O)O)C(C)(C)CCC1 [Retinoic acid] | inhibits this induction of ODC activity by TPA |
